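Each compound was tested at five concentrations against cells in 96-well plates for 48 hours. Here, GI50 denotes the concentration required for 50% inhibition of growth. TGI: concentration producing complete growth inhibition.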

Common to all, as to assay: NCI anticancer screen, dose series, 48 h
For assay [1], the system named is BT-549 breast.
Assay [2] has as its system EKVX NSCLC.
Assay [3] relates to HCT-15 colon.
Assay [4] deals with HOP-92 NSCLC.
Assay [5] has as its system NCI-H226 lung.
In assay [6] the test system is OVCAR-8 ovarian.
Assay [7] deals with SK-MEL-2 melanoma.
Assay [8] has as its system SK-MEL-5 melanoma.
Assay [9] has as its system SN12C renal.
Assay [10] concerns T-47D breast.

Turning to `O=C(Nc1cccc(C(F)(F)F)c1)c1cc2ccccc2cc1O`, the GI50 in [1] was 1.27 µM; in [2], 1.87 µM; in [3], 2.34 µM; in assay [4], 0.252 µM; in [5] it was 2.22 µM; in assay [6], 3.7 µM. For the same compound, the GI50 in assay [7] was 2.7 µM; in assay [8] it was 0.987 µM; in assay [9] it was 1.49 µM; in assay [10] it was 1.68 µM. The TGI in assay [1] was 6.09 µM; in [2], 7.69 µM; in assay [3], above 100 µM; in assay [4], 1.61 µM; in assay [5], above 100 µM; in assay [6], above 31.3 µM. The TGI is 18.7 µM in assay [7], 3.5 µM in assay [8], above 100 µM in assay [9] and 58 µM in assay [10].

With `CCCCCCCCCCSC(=N)N`, the GI50 was 11.3 µM in assay [1]; 10.3 µM in assay [2]; 2.01 µM in assay [3]; 1.42 µM in [4]; 6.09 µM in assay [5]; 4.17 µM in assay [6]. The GI50 in [7] was 1.68 µM; in [8], 2.12 µM; in [9] it was 5.09 µM; in [10], 2.04 µM. Also, the TGI in [1] was 24.6 µM; in assay [2] it was 25.3 µM; in assay [3], 4.73 µM; in assay [4] it was 4.59 µM; in [5] it was 23.2 µM; in assay [6] it was 19.2 µM. Further, the TGI in [7] amounted to 3.27 µM; in assay [8], 4.71 µM; in assay [9], 18.4 µM; in assay [10] it was 4.55 µM.

Turning to `C/C(=N/O)c1ccc(Nc2cc(-n3ccnc3)c3ccccc3n2)cc1`, the GI50 is 16.8 µM in assay [1]; 22 µM in [2]; 14.3 µM in [3]; 38.3 µM in assay [4]; 30 µM in assay [5]; 6.01 µM in [6]. The GI50 in assay [7] was 38.5 µM; in [8] it was 16.3 µM; in [9], 39.5 µM; in [10] it was 9.96 µM. The TGI in [1] is 84.7 µM; in [2] it was above 100 µM; in assay [3], 37.3 µM; in assay [4], above 100 µM; in assay [5], 89 µM; in assay [6] it was 25.5 µM. Moreover, the TGI in assay [7], in [8], in assay [9] and in assay [10] was above 100 µM throughout.

For `CN(C(=O)CNC(=O)/C=C/c1cccc(Cl)c1)C1CCS(=O)(=O)CC1`, the GI50 is 6.09 µM in [1]; 34.3 µM in assay [2]; 0.819 µM in [3]; above 100 µM in assay [4]; 1.02 µM in [5]; above 100 µM in assay [6]. In addition, the values for the GI50 in [7], in assay [9] and in assay [10] were 15.6 µM, 2.99 µM and 7.36 µM, respectively. The TGI in assay [1], in assay [2], in [3], in assay [4], in assay [5] and in assay [6] was above 100 µM each time. The TGI in [7], in [9] and in [10] was above 100 µM each time.

As to `Nc1ccn(C2OC(C(OC3OC(CO)C(O)C(N)C3O)C(O)C(O)C(O)C(O)CO)C(N)C(O)C2O)c(=O)n1` (stereo not given), the TGI in assay [1] was 99 µM; in [2], above 100 µM; in assay [3], above 100 µM; in [4], 24.6 µM; in assay [6], above 100 µM; in [7], above 100 µM. Moreover, the TGI in assay [8], in [9] and in assay [10] was above 100 µM each time.

Regarding `CN1CCN(c2ccc3nc(-c4ccc(OCCCCN5CCN(CCCCN6C(=O)c7cccc8cccc(c78)C6=O)CC5)cc4)[nH]c3c2)CC1`, the GI50 in [1] was 40.4 µM; in [2], above 100 µM; in [3], 35.3 µM; in assay [4], 71.4 µM; in assay [5], 37.6 µM; in assay [6], 48.6 µM. The GI50 is 95.6 µM in [7], 18.8 µM in assay [8] and 31.2 µM in [10]. Further, the TGI in [1], in assay [2], in assay [3], in assay [4], in [5] and in assay [6] was above 100 µM in each case. Moreover, the values for the TGI in [7], in assay [8] and in assay [10] were above 100 µM, 76.9 µM and above 100 µM, respectively.

For `O=C(Nc1nc2ccccc2s1)c1cc(-c2ccc(F)cc2)n2nc(-c3ccccc3)cc2n1`, the GI50 was 2.05 µM in [1]; 6.69 µM in [2]; 1.69 µM in [4]; 6.31 µM in assay [5]; 3.15 µM in [7]; 6.49 µM in assay [9]. Further, in assay [10], the GI50 was 3.34 µM. Besides, the TGI was 6.5 µM in assay [1]; above 100 µM in [2]; 5.06 µM in assay [4]; above 100 µM in assay [5]; 8.97 µM in assay [7]; above 100 µM in assay [9]. In assay [10], the TGI was above 100 µM.

As for `CN=C(N)N/N=C(\C)c1ccc2c(c1)Cc1ccccc1-2`, the GI50 is 10.2 µM in [1]; 2.62 µM in assay [2]; 1.83 µM in assay [3]; 1.63 µM in [4]; 1.87 µM in assay [7]; 1.61 µM in assay [8]. The GI50 in assay [9] is 1.92 µM; in [10], 1.32 µM. Besides, the TGI in assay [1] stood at 27.9 µM; in assay [2] it was 13.9 µM; in assay [3], 3.86 µM; in assay [4], 5.67 µM; in assay [7], 3.81 µM; in assay [8], 2.95 µM. The TGI was found to be 5.38 µM in assay [9] and 2.92 µM in assay [10].

For the origin of these results see PubChem BioAssay (NCI).
